{"source": "patent US20100062046A1", "about": "“POLYMORPHS OF NICOTINIC INTERMEDIATES” (priority 2006, published 2010)", "type_in_all_cases": "physicochemical", "key": {"[1]": {"experiment": "Relative stability of crystalline forms, studies in dichloromethane, ethyl acetate, methanol and toluene", "details": "compound II", "method": "Form B was obtained mainly from fast evaporations of ethyl acetate and methyl ethyl ketone, and from a solvent/antisolvent. […] Form A has a melting point of ˜177° C. and Form B has a melting point of ˜170° C."}, "[2]": {"experiment": "Hygroscopicity of crystalline forms", "details": "crystalline solid"}, "[3]": {"experiment": "Storage of Form C at high humidities", "details": "stored at high humidities", "text": "and is observed when Form C is stored at high humidities. […] The lot used to generate this X-ray powder diffraction and Raman data may contain residual compound IV Form C."}}}
{"smiles": "O=C(N1CC2CC(C1)c1cc([N+](=O)[O-])c([N+](=O)[O-])cc12)C(F)(F)F", "note": "[Compound II Form A, 1,5-Methano-1H-3-benzazepine-2,3,4,5-tetrahydro-7,8-dinitro-3-(trifluoroacetyl)]", "values": [{"measurement": "relative stability of crystalline forms", "setting": "[1]; ambient temperature and 60° C., dichloromethane, ethyl acetate, methanol, toluene", "value": "more stable than Form B"}, {"measurement": "hygroscopicity", "setting": "[2]", "value": "non-hygroscopic"}]}
{"smiles": "O=C(N1CC2CC(C1)c1cc([N+](=O)[O-])c([N+](=O)[O-])cc12)C(F)(F)F", "note": "[Compound II Form B, 1,5-Methano-1H-3-benzazepine-2,3,4,5-tetrahydro-7,8-dinitro-3-(trifluoroacetyl)]", "values": [{"measurement": "form conversion upon heating", "setting": "[1]; upon heating", "value": "converts to Form A upon heating"}]}
{"smiles": "O=C(N1CC2CC(C1)c1cc3nccnc3cc12)C(F)(F)F", "note": "[Compound III Form A, 6,10-Methano-6H-pyrazino[2,3-h][3]benzazepine,7,8,9,10-tetrahydro-8-(trifluoroacetyl)]", "values": [{"measurement": "hygroscopicity", "setting": "[2]", "value": "non-hygroscopic"}]}
{"smiles": "c1cnc2cc3c(cc2n1)C1CNCC3C1", "note": "[Compound IV Form C]", "values": [{"measurement": "formation of N-carboxyvarenicline adduct on storage", "setting": "[3]", "value": "observed"}]}
